# In patent US20260297070A1, “CYCLIC [COMPOUND LEFT OUT] WRN INHIBITORS” (Nimbus Wadjet, Inc., priority 2023, published 2026):
# Target: T1, human Werner helicase (WRN-BV08, Uniprot Q14191, amino acids 517-1235 with L1074F point mutation) (Homo sapiens, UniProt Q14191, L1074F)
# T1 construct: Uniprot Q14191, amino acids 517-1235 with L1074F point mutation; TEV-cleavable 8×His (C, cleaved yes); made in house; host or cells: Sf9 insect cells (baculovirus)
# Assay: WRN (BV08) ADP-Glo Assay
# Type: biochemical
# Conditions: 0.15 nM WRN, 5 μM ATP, 0.1 nM DNA duplex, 15 min preincubation, 60 min at 25° C., pH 7.5, 1% DMSO; read-out: ADP-Glo_hWRN_IC50
# How it was run: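 Percent inhibition was normalised to DMSO (max) and 20 μM NSC-617145 (min) controls from ADP-Glo luminescence, and IC50 values came from a four-parameter fit. The reaction ran 60 min at 25 °C with 0.15 nM WRN, 5 μM ATP and 0.1 nM duplex DNA.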
# T1 sequence (Q14191 with tags, fused parts or gaps L1074F limits assumed): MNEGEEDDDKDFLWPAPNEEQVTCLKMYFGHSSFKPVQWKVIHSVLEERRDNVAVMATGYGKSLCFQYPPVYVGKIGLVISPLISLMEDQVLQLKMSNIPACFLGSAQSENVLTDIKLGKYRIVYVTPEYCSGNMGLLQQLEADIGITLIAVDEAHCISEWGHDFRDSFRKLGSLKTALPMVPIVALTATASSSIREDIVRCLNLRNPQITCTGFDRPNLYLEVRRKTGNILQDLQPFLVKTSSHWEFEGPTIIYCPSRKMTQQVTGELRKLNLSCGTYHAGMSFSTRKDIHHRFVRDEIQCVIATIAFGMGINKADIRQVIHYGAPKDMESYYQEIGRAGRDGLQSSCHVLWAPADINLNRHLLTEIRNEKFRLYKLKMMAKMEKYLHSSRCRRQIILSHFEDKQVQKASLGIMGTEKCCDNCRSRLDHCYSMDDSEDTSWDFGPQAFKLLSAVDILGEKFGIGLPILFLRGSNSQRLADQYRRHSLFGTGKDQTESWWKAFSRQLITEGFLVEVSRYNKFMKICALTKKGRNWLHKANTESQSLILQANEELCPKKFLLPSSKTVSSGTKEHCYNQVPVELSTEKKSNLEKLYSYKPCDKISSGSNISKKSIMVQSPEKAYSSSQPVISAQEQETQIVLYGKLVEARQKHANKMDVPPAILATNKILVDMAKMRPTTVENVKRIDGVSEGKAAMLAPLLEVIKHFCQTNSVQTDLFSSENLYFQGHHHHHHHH
row,SMILES,IC50 [µM]
1,"O=C(Cc1ccc(-n2cccc2)cc1)N(Cc1nc2c(s1)COCC2)C1C=CS(=O)(=O)C1 (stereo not drawn) [I-178, N-(1,1-dioxo-2,3-dihydro-1lambda6-thiophen-3-yl)-N-({4H,6H,7H-pyrano[4,3-d][1,3]thiazol-2-yl}methyl)-2-[4-(1H-pyrrol-1-yl)phenyl]acetamide]",0.5 to 5
2,"CC(C)(O)c1cc(CN(C(=O)Cn2nc(-c3cc(F)c(F)c(F)c3)cc2N)C2C=CS(=O)(=O)C2)ccn1 (single isomer, unassigned) [I-821]",0.5 to 5
3,"Cc1cccn1-c1ccc(CC(=O)N(Cc2ccnc(CC(C)(C)O)c2)C2C=CS(=O)(=O)C2)c(F)c1 (stereo not drawn) [I-139, N-(1,1-dioxo-2,3-dihydro-1lambda6-thiophen-3-yl)-2-[2-fluoro-4-(2-methyl-1H-pyrrol-1-yl)phenyl]-N-{[2-(2-hydroxy-2-methylpropyl)pyridin-4-yl]methyl}acetamide]",0.5 to 5
4,"COc1cc(CN(C(=O)C(c2ccc(-c3ccc(F)c(F)c3)cc2F)n2cc(OC(F)F)cn2)[C@@H]2C=CS(=O)(=O)C2)ccn1 (single isomer, unassigned) [I-696, (2R*)-2-[4-(difluoromethoxy)-1H-pyrazol-1-yl]-N-[(3R)-1,1-dioxo-2,3-dihydro-1lambda6-thiophen-3-yl]-N-[(2-methoxypyridin-4-yl)methyl]-2-{3,3′,4′-trifluoro-[1,1′-biphenyl]-4-yl}acetamide]",> 50
5,"COc1cc(CN(C(=O)Cc2ccc(-c3ccc(F)cc3O)nc2)C2C=CS(=O)(=O)C2)ccn1 (single isomer, unassigned) [I-353]",10 to 50
6,"O=C(Cc1ccc(S(F)(F)(F)(F)F)cc1)N(Cc1noc(C2CC2)n1)C1C=CS(=O)(=O)C1 (stereo not drawn) [I-644, N-[(5-cyclopropyl-1,2,4-oxadiazol-3-yl)methyl]-N-(1,1-dioxo-2,3-dihydro-1lambda6-thiophen-3-yl)-2-[4-(pentafluoro-lambda6-sulfanyl)phenyl]acetamide]",0.5 to 5
7,"CN(C)C(=O)C(C(=O)N(Cc1ccncc1)C1C=CS(=O)(=O)C1)c1ccc(-c2ccc(F)cc2)cc1 (single isomer, unassigned) [I-374, (2R**)-N′-[(3R*)-1,1-dioxo-2,3-dihydro-1lambda6-thiophen-3-yl]-2-{4′-fluoro-[1,1′-biphenyl]-4-yl}-N,N-dimethyl-N′-[(pyridin-4-yl)methyl]propanediamide]",> 50
8,"O=C(C1Cc2cc(-n3cccc3)ccc2O1)N(Cc1ccncc1)C1C=CS(=O)(=O)C1 (stereo not drawn) [I-244, N-(1,1-dioxo-2,3-dihydro-1lambda6-thiophen-3-yl)-N-[(pyridin-4-yl)methyl]-5-(1H-pyrrol-1-yl)-2,3-dihydro-1-benzofuran-2-carboxamide]",5 to 10
9,"O=C(c1cnn(Cc2ccccc2)c1)N(Cc1ccncc1)C1C=CS(=O)(=O)C1 (stereo not drawn) [I-538, 1-benzyl-N-(1,1-dioxo-2,3-dihydro-1lambda6-thiophen-3-yl)-N-[(pyridin-4-yl)methyl]-1H-pyrazole-4-carboxamide]",> 50
10,"O=C(CCc1nc2cc(Cl)ccc2s1)N(Cc1ccncc1)C1C=CS(=O)(=O)C1 (stereo not drawn) [I-391, 3-(5-chloro-1,3-benzothiazol-2-yl)-N-(1,1-dioxo-2,3-dihydro-1lambda6-thiophen-3-yl)-N-[(pyridin-4-yl)methyl]propanamide]",> 50
11,"COC(C(=O)N(Cc1ccnc(C(C)(C)O)c1)C1C=CS(=O)(=O)C1)c1ccc(C(F)(F)F)cc1 (stereo not drawn) [I-209, N-(1,1-dioxo-2,3-dihydro-1lambda6-thiophen-3-yl)-N-{[2-(2-hydroxypropan-2-yl)pyridin-4-yl]methyl}-2-methoxy-2-[4-(trifluoromethyl)phenyl]acetamide]",0.5 to 5
12,"O=C(Cc1ccc(-n2cccc2)cc1)N(Cc1ccccc1)C1C=C(CO)S(=O)(=O)C1 (stereo not drawn) [I-373, N-benzyl-N-[5-(hydroxymethyl)-1,1-dioxo-2,3-dihydro-1lambda6-thiophen-3-yl]-2-[4-(1H-pyrrol-1-yl)phenyl]acetamide]",> 50
13,"O=C(c1ccncc1)N(CCc1ccc(-n2cccc2)cc1)C1C=CS(=O)(=O)C1 (stereo not drawn) [I-553, N-(1,1-dioxo-2,3-dihydro-1lambda6-thiophen-3-yl)-N-{2-[4-(1H-pyrrol-1-yl)phenyl]ethyl}pyridine-4-carboxamide]",> 50
14,"O=C(C(c1ccc(-c2ccc(F)cc2)cc1)C1CC1)N(Cc1ccncc1)C1C=CS(=O)(=O)C1 (stereo not drawn) [I-677, 2-cyclopropyl-N-(1,1-dioxo-2,3-dihydro-1lambda6-thiophen-3-yl)-2-{4′-fluoro-[1,1′-biphenyl]-4-yl}-N-[(pyridin-4-yl)methyl]acetamide]",10 to 50
15,"O=C(Cn1cc(-c2ccc(F)c(F)c2)cn1)N(Cc1nc([C@@H]2C[C@H]2F)cs1)C1C=CS(=O)(=O)C1 (stereo partly drawn) [I-723, 2-[4-(3,4-difluorophenyl)-1H-pyrazol-1-yl]-N-(1,1-dioxo-2,3-dihydro-1lambda6-thiophen-3-yl)-N-({4-[(1S,2R)-2-fluorocyclopropyl]-1,3-thiazol-2-yl}methyl)acetamide]",< 0.5

# The remaining lines, values ahead:
row,IC50 [µM],SMILES
1,0.5 to 5,"Cc1cc(CN(C(=O)Cc2ccc(-n3cccc3)cc2)C2C=CS(=O)(=O)C2)ccn1 (stereo not drawn) [I-207, N-(1,1-dioxo-2,3-dihydro-1lambda6-thiophen-3-yl)-N-[(2-methylpyridin-4-yl)methyl]-2-[4-(1H-pyrrol-1-yl)phenyl]acetamide]"
2,10 to 50,"COc1cc(-c2ccc(F)cc2)ccc1CC(=O)N(Cc1ccncc1)C1C=CS(=O)(=O)C1 (stereo not drawn) [I-345, N-(1,1-dioxo-2,3-dihydro-1lambda6-thiophen-3-yl)-2-{4′-fluoro-3-methoxy-[1,1′-biphenyl]-4-yl}-N-[(pyridin-4-yl)methyl]acetamide]"
3,< 0.5,"CC(C)(O)c1cc(CN(C(=O)Cn2cc(-c3ccc(Cl)cc3)cn2)C2C=CS(=O)(=O)C2)ccn1 (stereo not drawn) [I-58, 2-[4-(4-chlorophenyl)-1H-pyrazol-1-yl]-N-(1,1-dioxo-2,3-dihydro-1lambda6-thiophen-3-yl)-N-{[2-(2-hydroxypropan-2-yl)pyridin-4-yl]methyl}acetamide]"
4,> 50,"O=C(C1CC(c2ccccc2)C1)N(Cc1ccncc1)C1C=CS(=O)(=O)C1 (stereo not drawn) [I-570, N-(1,1-dioxo-2,3-dihydro-1lambda6-thiophen-3-yl)-3-phenyl-N-[(pyridin-4-yl)methyl]cyclobutane-1-carboxamide]"
5,0.5 to 5,"CN(C)C(=O)c1ccc(CN(C(=O)Cc2ccc(-c3ccc(F)c(F)c3)cc2F)C2C=CS(=O)(=O)C2)cc1 (stereo not drawn) [I-779, 4-{[N-(1,1-dioxo-2,3-dihydro-1lambda6-thiophen-3-yl)-2-{3,3′,4′-trifluoro-[1,1′-biphenyl]-4-yl}acetamido]methyl}-N,N-dimethylbenzamide]"
6,0.5 to 5,"O=C(Cc1ccc(-n2cccc2)cc1)N(Cc1cccc(Cl)c1)C1C=CS(=O)(=O)C1 (stereo not drawn) [I-201, N-[(3-chlorophenyl)methyl]-N-(1,1-dioxo-2,3-dihydro-1lambda6-thiophen-3-yl)-2-[4-(1H-pyrrol-1-yl)phenyl]acetamide]"
7,> 50,O=C(C1CCn2cc(C(F)(F)F)nc2C1)N(Cc1ccncc1)C1C=CS(=O)(=O)C1 (stereo not drawn) [I-622]
8,> 50,"CC(=O)N(C)C(C(=O)N(Cc1ccncc1)C1C=CS(=O)(=O)C1)c1ccc(-n2cccc2)cc1 (stereo not drawn) [I-377, N-(1,1-dioxo-2,3-dihydro-1lambda6-thiophen-3-yl)-2-(N-methylacetamido)-N-[(pyridin-4-yl)methyl]-2-[4-(1H-pyrrol-1-yl)phenyl]acetamide]"
9,0.5 to 5,"O=C(Cn1cc(-c2ccc(F)cc2)cn1)N(Cc1nc(C2CC2)cs1)C1C=CS(=O)(=O)C1 (single isomer, unassigned) [I-601]"
10,0.5 to 5,"NS(=O)(=O)c1ccc(CN(C(=O)Cc2ccc(-n3cccc3)cc2)C2C=CS(=O)(=O)C2)cc1 (stereo not drawn) [I-184, N-(1,1-dioxo-2,3-dihydro-1lambda6-thiophen-3-yl)-2-[4-(1H-pyrrol-1-yl)phenyl]-N-[(4-sulfamoylphenyl)methyl]acetamide]"
11,10 to 50,"O=C(Cc1ccc(-n2cccc2)cn1)N(Cc1ccncc1)C1C=CS(=O)(=O)C1 (stereo not drawn) [I-319, N-(1,1-dioxo-2,3-dihydro-1lambda6-thiophen-3-yl)-N-[(pyridin-4-yl)methyl]-2-[5-(1H-pyrrol-1-yl)pyridin-2-yl]acetamide]"
12,0.5 to 5,"COc1cc(CN(C(=O)Cc2ccc(-n3c(C)ccc3C)cc2F)C2C=CS(=O)(=O)C2)ccn1 (stereo not drawn) [I-171, 2-[4-(2,5-dimethyl-1H-pyrrol-1-yl)-2-fluorophenyl]-N-(1,1-dioxo-2,3-dihydro-1lambda6-thiophen-3-yl)-N-[(2-methoxypyridin-4-yl)methyl]acetamide]"
13,5 to 10,"O=C(Cc1ccc(-n2cccc2)cc1)N(Cc1ccncc1)C1C=CS(=O)(=O)C1 (stereo not drawn) [I-239, N-(1,1-dioxo-2,3-dihydro-1lambda6-thiophen-3-yl)-N-[(pyridin-4-yl)methyl]-2-[4-(1H-pyrrol-1-yl)phenyl]acetamide]"
14,10 to 50,"O=C(Cc1ccc(C(F)(F)F)nc1)N(Cc1ccncc1)C1C=CS(=O)(=O)C1 (stereo not drawn) [I-367, N-(1,1-dioxo-2,3-dihydro-1lambda6-thiophen-3-yl)-N-[(pyridin-4-yl)methyl]-2-[6-(trifluoromethyl)pyridin-3-yl]acetamide]"
15,0.5 to 5,"COc1cc(CN(C(=O)C(OCCC#N)c2ccc(-c3ccc(F)c(F)c3)cc2F)[C@@H]2C=CS(=O)(=O)C2)ccn1 (single isomer, unassigned) [I-735, (2R*)-2-(2-cyanoethoxy)-N-[(3R)-1,1-dioxo-2,3-dihydro-1lambda6-thiophen-3-yl]-N-[(2-methoxypyridin-4-yl)methyl]-2-{3,3′,4′-trifluoro-[1,1′-biphenyl]-4-yl}acetamide]"
